Assay results as given in patent publication US9688691B2, “Macrocyclic quinazole derivatives and their use as MTKI” (Janssen Pharmaceutica NV, priority 2004, dated 2017).

Assays:
Abl (h) = Abl (h) (Homo sapiens, UniProt P00519); experiment: Kinase profiling, glass-fiber filter technology: Abl; type: biochemical; conditions: test concentration of 10^−6 M; read-out: Abl inhibition score
Procedure: (§1) The in vitro inhibition of a panel of kinases was assessed using the glass-fiber filter technology as described by Davies, S. P. et al., Biochem J. (2000), 351; p. 95-105.
(§2) In the glass-fiber filter technology the activity of the kinase of interest is measured using an appropriate substrate that is incubated with the aforementioned kinase protein in the presence of (^33P) radiolabeled ATP. (^33P) Phosporylation of the substrate is subsequently measured as radioactivity bound on a glassfiber-filter.
(§3) All kinases are pre-diluted to a 10× working concentration prior to addition into the assay. The composition of the dilution buffer for each kinase is detailed below.
(§4) All substrates are dissolved and diluted to working stocks in de-ionised water.
(§5) In a final reaction volume of 25 μl, Abl (h) (5-10 mU) is incubated with 8 mM MOPS pH 7.0, 0.2 mM EDTA, 50 μM EAIYAAPFAKKK, 10 mM MgAcetate and [γ-^33P-ATP] (specific activity approx. 500 cpm/pmol, concentration as required). The reaction is initiated by the addition of the MgATP mix. After incubation for 40 minutes at room temperature, the reaction is stopped by the addition of 5 μl of a 3% phosphoric acid solution. 10 μl of the reaction is then spotted onto a P30 filtermat and washed three times for 5 minutes in 75 mM phosphoric acid and once in methanol prior to drying and scintillation counting.

CDK5/p35 human = CDK5/p35 human (Homo sapiens, UniProt Q00535); experiment: Kinase profiling, glass-fiber filter technology: CDK5/p35; type: biochemical; conditions: test concentration of 10^−6 M; read-out: CDK5/p35 inhibition score
Procedure: as §1, §2, §3, §4
as §5, with “CDK5/p35 human” for “Abl (h)”, “0.1 mg/ml histone H1,” for “50 μM EAIYAAPFAKKK,”

CDK6/cyclinD3 human = CDK6/cyclinD3 human (Homo sapiens, UniProt Q00534); experiment: Kinase profiling, glass-fiber filter technology: CDK6/cyclinD3; type: biochemical; conditions: test concentration of 10^−6 M; read-out: CDK6/cyclinD3 inhibition score
Procedure: as §1, §2, §3, §4
as §5, with “CDK6/cyclinD3 human” for “Abl (h)”, “0.1 mg/ml histone H1,” for “50 μM EAIYAAPFAKKK,”

Abl (h), sequence (P00519 whole entry): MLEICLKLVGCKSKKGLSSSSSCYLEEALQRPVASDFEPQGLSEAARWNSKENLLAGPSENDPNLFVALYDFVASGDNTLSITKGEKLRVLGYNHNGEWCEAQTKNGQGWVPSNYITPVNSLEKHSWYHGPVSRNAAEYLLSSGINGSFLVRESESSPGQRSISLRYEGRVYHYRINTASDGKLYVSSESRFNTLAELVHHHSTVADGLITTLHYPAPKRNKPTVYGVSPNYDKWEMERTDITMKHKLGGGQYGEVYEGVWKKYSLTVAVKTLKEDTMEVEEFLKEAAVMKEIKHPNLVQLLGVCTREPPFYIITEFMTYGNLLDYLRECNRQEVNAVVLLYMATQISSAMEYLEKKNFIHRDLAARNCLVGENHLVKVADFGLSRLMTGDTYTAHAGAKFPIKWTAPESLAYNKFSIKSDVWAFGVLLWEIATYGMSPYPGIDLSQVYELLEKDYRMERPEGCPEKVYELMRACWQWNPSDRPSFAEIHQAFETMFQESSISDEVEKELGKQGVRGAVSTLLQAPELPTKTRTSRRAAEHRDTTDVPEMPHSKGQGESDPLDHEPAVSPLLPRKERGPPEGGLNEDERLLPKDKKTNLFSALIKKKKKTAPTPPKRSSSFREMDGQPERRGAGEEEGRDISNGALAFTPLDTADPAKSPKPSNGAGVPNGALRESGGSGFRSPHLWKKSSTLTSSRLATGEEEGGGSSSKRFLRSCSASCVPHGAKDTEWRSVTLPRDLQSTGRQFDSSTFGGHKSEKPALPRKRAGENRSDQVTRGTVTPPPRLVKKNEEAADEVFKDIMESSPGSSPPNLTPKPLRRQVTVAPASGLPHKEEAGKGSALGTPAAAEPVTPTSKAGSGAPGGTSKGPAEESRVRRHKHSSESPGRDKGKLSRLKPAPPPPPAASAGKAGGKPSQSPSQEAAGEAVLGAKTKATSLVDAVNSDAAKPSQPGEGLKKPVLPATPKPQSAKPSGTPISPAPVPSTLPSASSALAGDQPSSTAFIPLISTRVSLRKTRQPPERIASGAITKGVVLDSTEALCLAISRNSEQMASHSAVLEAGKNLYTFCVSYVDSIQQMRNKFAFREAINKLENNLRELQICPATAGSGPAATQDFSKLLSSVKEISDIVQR
CDK6/cyclinD3 human, sequence (Q00534 whole entry): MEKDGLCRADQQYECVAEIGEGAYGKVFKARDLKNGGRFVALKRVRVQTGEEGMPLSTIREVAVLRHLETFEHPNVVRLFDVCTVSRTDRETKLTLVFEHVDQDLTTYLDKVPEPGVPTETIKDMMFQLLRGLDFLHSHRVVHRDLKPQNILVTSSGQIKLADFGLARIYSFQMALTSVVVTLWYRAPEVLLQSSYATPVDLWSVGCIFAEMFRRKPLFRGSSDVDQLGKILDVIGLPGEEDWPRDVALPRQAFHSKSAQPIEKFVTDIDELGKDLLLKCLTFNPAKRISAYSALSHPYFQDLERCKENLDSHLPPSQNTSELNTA
CDK6/cyclinD3 human, sequence (P30281 whole entry partner): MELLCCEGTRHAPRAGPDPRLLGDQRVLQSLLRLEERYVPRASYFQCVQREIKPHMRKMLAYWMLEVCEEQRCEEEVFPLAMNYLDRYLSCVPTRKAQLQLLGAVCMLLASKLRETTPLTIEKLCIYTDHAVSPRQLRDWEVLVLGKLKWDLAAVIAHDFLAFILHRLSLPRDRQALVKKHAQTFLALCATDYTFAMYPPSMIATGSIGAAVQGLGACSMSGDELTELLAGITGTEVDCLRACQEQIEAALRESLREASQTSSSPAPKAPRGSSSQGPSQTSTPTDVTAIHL
CDK5/p35 human, sequence (Q00535 whole entry): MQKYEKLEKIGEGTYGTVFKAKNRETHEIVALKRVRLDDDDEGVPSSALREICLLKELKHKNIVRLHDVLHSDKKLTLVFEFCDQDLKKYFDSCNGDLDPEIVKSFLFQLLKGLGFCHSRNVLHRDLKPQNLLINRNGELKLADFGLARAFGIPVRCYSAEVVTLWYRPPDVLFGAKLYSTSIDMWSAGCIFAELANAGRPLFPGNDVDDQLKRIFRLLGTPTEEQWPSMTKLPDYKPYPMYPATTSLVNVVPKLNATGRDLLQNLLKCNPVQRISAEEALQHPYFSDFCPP
CDK5/p35 human, sequence (Q15078 whole entry partner): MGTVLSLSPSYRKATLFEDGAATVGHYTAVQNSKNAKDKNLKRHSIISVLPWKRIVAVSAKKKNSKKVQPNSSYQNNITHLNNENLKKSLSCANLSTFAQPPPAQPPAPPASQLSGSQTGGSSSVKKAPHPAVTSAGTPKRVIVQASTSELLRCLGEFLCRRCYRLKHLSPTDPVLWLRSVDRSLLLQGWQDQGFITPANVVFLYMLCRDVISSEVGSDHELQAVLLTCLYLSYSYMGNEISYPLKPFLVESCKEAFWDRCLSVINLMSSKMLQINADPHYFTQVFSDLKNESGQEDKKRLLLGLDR

SMILES	melting point [°C]	inhibition at 1 µM (Abl (h)) [%]	inhibition at 1 µM (CDK5/p35 human) [%]	inhibition at 1 µM (CDK6/cyclinD3 human) [%]
CC(=O)NCCNCCCOc1cc2ncnc3c2cc1OCCCNC(=O)[C@H](C)N(C)Cc1cc(F)c(Cl)cc1N3 [Compound 4]	112	–	–	–
CC(=O)NCCN1CCN(CCCOc2cc3ncnc4c3cc2OCCCNC(=O)[C@H](C)N(C)Cc2cc(F)c(Cl)cc2N4)CC1 [Compound 6]	136	> 80	–	–
CN1CCCCCOc2cc3c(ncnc3cc2OC[C@H](O)CNCCOCCO)Nc2cc(Cl)c(F)cc2C1 [Compound 17]	–	> 80	–	–
CN1CCCCCOc2cc3c(ncnc3cc2OCCCNCCS(C)(=O)=O)Nc2cc(Cl)c(F)cc2C1 [Compound 18]	–	> 80	–	–

The remaining lines, values ahead:

melting point [°C]	inhibition at 1 µM (Abl (h)) [%]	inhibition at 1 µM (CDK5/p35 human) [%]	inhibition at 1 µM (CDK6/cyclinD3 human) [%]	SMILES
–	> 80	10 to 30	–	COc1cc2ncnc3c2cc1OCCCN(CCN1CCOCC1)C(=O)CNC(=O)Cc1ccc(Cl)cc1N3 [Compound 15]
–	10 to 30	–	–	COc1cc2ncnc3c2cc1OCCCN(CCCN1CCOCC1)C(=O)[C@H](CC(C)C)NC(=O)Cc1ccc(Br)cc1N3 [Int. 25]
–	60 to 80	–	10 to 30	COCCOCCOc1cc2ncnc3c2cc1OCCCCCN(C)Cc1ccc(Br)cc1N3 [Int. 43]
